From patent publication US8586550B2, “Thiazole derivatives as SGLT2 inhibitors and pharmaceutical composition comprising same” (Green Cross Corporation, priority 2010, dated 2013)

Biological target: T1, Human SGLT2 (hSGLT2) (Homo sapiens, UniProt P31639)
T1 construct: expressed in transfected cells
T1 sequence (P31639 1-672): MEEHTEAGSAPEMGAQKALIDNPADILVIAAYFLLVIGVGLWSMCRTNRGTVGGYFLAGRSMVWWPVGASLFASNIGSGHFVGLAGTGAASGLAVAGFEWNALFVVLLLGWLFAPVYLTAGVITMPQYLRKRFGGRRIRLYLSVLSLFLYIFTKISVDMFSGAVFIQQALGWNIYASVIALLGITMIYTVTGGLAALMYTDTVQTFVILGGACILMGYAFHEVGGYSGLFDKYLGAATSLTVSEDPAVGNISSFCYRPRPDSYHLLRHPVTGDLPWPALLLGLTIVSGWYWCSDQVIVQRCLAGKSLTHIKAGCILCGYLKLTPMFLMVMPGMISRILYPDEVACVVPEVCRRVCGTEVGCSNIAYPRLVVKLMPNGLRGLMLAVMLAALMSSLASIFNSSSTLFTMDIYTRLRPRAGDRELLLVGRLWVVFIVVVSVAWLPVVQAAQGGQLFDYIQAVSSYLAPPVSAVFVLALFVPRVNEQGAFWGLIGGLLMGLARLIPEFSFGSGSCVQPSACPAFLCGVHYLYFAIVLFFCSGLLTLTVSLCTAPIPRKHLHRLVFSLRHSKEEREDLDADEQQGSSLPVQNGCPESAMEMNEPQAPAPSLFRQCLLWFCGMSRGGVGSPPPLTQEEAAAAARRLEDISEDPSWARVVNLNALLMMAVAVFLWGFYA
Assay: Sodium-dependent glucose transport (14C-AMG uptake) assay in CHO cells stably expressing hSGLT2
Format: cell-based
Details: CHO cells expressing hSGLT2, 14C-AMG uptake, 37° C. for 2 h; single determinations; read-out: hSGLT2 Inhibitory Activity IC50
Procedure, shortened: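 Uptake of 14C-α-methyl-D-glucopyranoside (8 μM labeled, 1 mM unlabeled, NaCl buffer pH 7.4) measured over 2 h at 37 °C with inhibitor in hSGLT2-transfected CHO cells after 10 min choline-buffer pretreatment. Radioactivity by liquid scintillation; IC50 from nonlinear regression.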

IC50 | Compound
15.4 nM | CCCSc1ncc(Cc2cc([C@@H]3O[C@H](CO)[C@@H](O)[C@H](O)[C@H]3O)ccc2Cl)s1 [Example 198, (2S,3R,4R,5S,6R)-2-(4-Chloro-3-((2-(propylthio)thiazol-5-yl)methyl)phenyl)-6-(hydroxymethyl)tetrahydro-2H-pyran-3,4,5-triol]
10.4 nM | Cc1ccc(-c2ncc(Cc3cc([C@@H]4O[C@H](CO)[C@@H](O)[C@H](O)[C@H]4O)ccc3Cl)s2)s1 [Example 188, (2S,3R,4R,5S,6R)-2-(4-Chloro-3-((2-(5-methylthiophen-2-yl)thiazol-5-yl)methyl)phenyl)-6-(hydroxymethyl)tetrahydro-2H-pyran-3,4,5-triol]
49.1 nM | Cc1cnc(Cc2cc([C@@H]3O[C@H](CO)[C@@H](O)[C@H](O)[C@H]3O)c(Cl)cc2Cl)s1 [Example 63, (2S,3R,4R,5S,6R)-2-(2,4-Dichloro-5-((5-methylthiazol-2-yl)methyl)phenyl)-6-(hydroxymethyl)tetrahydro-2H-pyran-3,4,5-triol]
30.9 nM | OCCOC[C@H]1O[C@@H](c2ccc(Cl)c(Cc3ncc(-c4ccco4)s3)c2)[C@H](O)[C@@H](O)[C@@H]1O [Example 141, (2S,3R,4R,5S,6R)-2-(4-Chloro-3-((5-(furan-2-yl)thiazol-2-yl)methyl)phenyl)-6-((2-hydroxyethoxy)methyl)tetrahydro-2H-pyran-3,4,5-triol]

More lines, now with the values behind:

Compound | IC50
COc1c(Cc2ncc(-c3ccccc3)s2)cc([C@@H]2O[C@H](CO)[C@@H](O)[C@H](O)[C@H]2O)c2ccccc12 [Example 97, (2R,3S,4R,5R,6S)-2-(Hydroxymethyl)-6-(4-methoxy-3-((5-phenylthiazol-2-yl)methyl)naphthalen-1-yl)-tetrahydro-2H-pyran-3,4,5-triol] | 6.77 nM
OC[C@H]1O[C@@H](c2cc(Cc3ncc(-c4ccco4)s3)c3ccccc3c2)[C@H](O)[C@@H](O)[C@@H]1O [Example 104, (2S,3R,4R,5S,6R)-2-(4-((5-(Furan-2-yl)thiazol-2-yl)methyl)naphthalen-2-yl)-6-(hydroxymethyl)-tetrahydro-2H-pyran-3,4,5-triol] | 100 nM
Cc1ccc(-c2cnc(Cc3cc([C@@H]4O[C@H](CO)[C@@H](O)[C@H](O)[C@H]4O)ccc3C)s2)cc1 [Example 36, (2R,3S,4R,5R,6S)-2-(Hydroxymethyl)-6-(4-methyl-3-((5-p-tolylthiazol-2-yl)methyl)phenyl)tetrahydro-2H-pyran-3,4,5-triol] | 21.5 nM
C=CCOC(=O)OC[C@H]1O[C@@H](c2ccc(Cl)c(Cc3ncc(-c4ccco4)s3)c2)[C@H](O)[C@@H](O)[C@@H]1O [Example 163, Allyl ((2R,3S,4R,5R,6S)-6-(4-chloro-3-((5-(furan-2-yl)thiazol-2-yl)methyl)phenyl)-3,4,5-trihydroxytetrahydro-2H-pyran-2-yl)methyl carbonate] | 11.4 nM
OC[C@H]1O[C@@H](c2cccc(Cc3ncc(-c4ccco4)s3)c2)[C@H](O)[C@@H](O)[C@@H]1O [Example 111, (2S,3R,4R,5S,6R)-2-(3-((5-(Furan-2-yl)thiazol-2-yl)methyl)phenyl)-6-(hydroxymethyl)-tetrahydro-2H-pyran-3,4,5-triol] | 22.6 nM
C=CCOc1cc(Cl)c(Cc2ncc(-c3ccoc3)s2)cc1[C@@H]1O[C@H](CO)[C@@H](O)[C@H](O)[C@H]1O [Example 84, (2S,3R,4R,5S,6R)-2-(2-(Allyloxy)-4-chloro-5-((5-(furan-3-yl)thiazol-2-yl)methyl)phenyl)-6-(hydroxymethyl)tetrahydro-2H-pyran-3,4,5-triol] | 1.54 nM
CCCCCc1cnc(Cc2cn([C@@H]3O[C@H](CO)[C@@H](O)[C@H](O)[C@H]3O)c3ccccc23)s1 [Example 136, (2R,3S,4S,5R,6R)-2-(Hydroxymethyl)-6-(3-((5-pentylthiazol-2-yl)methyl)-1H-indol-1-yl)tetrahydro-2H-pyran-3,4,5-triol] | 210 nM
